The record followed here is patent US10512651B2, “Inhibition of MK2 in the treatment of cancer” (STC.UNM, priority 2014, dated 2019).

The test system of assay [1] is Caco-2 colon cancer cells. Put plainly: Caco-2 scratch wound assay (proliferation and migration). The assay is classed as cell-based. Particulars: Caco-2 cells incubated with inhibitor, FIG. 9. How it is done:
FIG. 9 is a graph showing that MK2 inhibition decreases colon cancer carcinoma cell proliferation. Incubating Caco-2 colon cancer cells with the MK2 inhibitor (MK2a) decreased proliferation and migration in a scratch wound assay.

Assay [2] has as its system neoplasms in AOM/DSS exposed mice. In words: AOM/DSS mouse model of colon cancer, neoplasm number after MK2 inhibitor treatment. The settings on record: treated three times a week for three weeks; FIG. 10. The assay is classed as in vivo. How it is done:
FIG. 10 is a graph showing that AOM/DSS exposed mice treated with MK2 inhibitors regresses neoplasms.
Mice: C57Bl/6 mice from Harlan Laboratories and the MK2^−/−tm1Mgl (8) mouse strain were bred under pathogen free conditions. Animal procedures were approved by the UNM IACUC. Azoxymethane (AOM), (Sigma Aldrich, St. Louis, Mo.) was injected […] into 6-8 week old female mice at 12.5 mg/kg. Dextran Sodium Sulfate (DSS), (MP Biomedicals, MW 36,000-50,000) was added to drinking water at 2.5% at days 5 and 26 and at 2.0% at day 47, 2.0% for 5 days sacrificed at day 80. Control mice received PBS IP and no DSS in water. Mouse Colon Supernatants: 8 mg (±0.5 mg) of cleaned colon tissues were incubated in complete RPMI with antibiotics for 12 hours. Supernatants were analyzed for cytokines by Luminex bead array (Millipore, Billerica, Mass.) according to manufacturer's instructions.

Regarding `O=C(CCCc1ccc(-c2ccccc2F)cc1)Nc1ccc(O)cc1` [MK2a inhibitor], in assay [1], the “migration in a scratch wound assay” value is given as “decreased”. Besides, the “colon cancer carcinoma cell proliferation” value in assay [1] (scratch wound assay) was “decreased”. For the same compound, the “neoplasms (number) in AOM/DSS exposed mice” value in assay [2] was “significantly less neoplasms”.
